Reference: patent US7199129B2, “Derivatives of morphine-like opioid compounds” (Monash University, priority 2001, dated 2007)
Where “and” joins values, the source holds several entries; their conditions need not be identical. Equal values may be shown once. Where a name gives a salt, the structure may show the parent alone.

Columns and labels:
ICR mice [1] = test: Straub tail behaviour (indicator of CNS activity) and observed signs in test animals
Text: The Straub test is an indicator of CNS activity.
The tail-flick test is thought to involve central nervous system activity, and therefore provides further confirmation of the Straub tail test.

ICR mice [2] = test: Phenylquinone-induced writhing assay in mice (Example 18); type: in vivo; details: IP; for Number of Writhings Individual: individual mice
Experimental: Testing on compounds KRS-6-26 and JFY-058 was also carried out under contract by MDS Services—Taiwan Ltd. The study was designed to evaluate the effects of the compounds as analgesics in the phenylquinone-induced writhing assay described in detail in Example 13(Siegmund et al, 1957).
(§1) In each case, a serial 2-fold dosage variance was used in the test, from 128 mg/kg to 1 mg/kg (8 doses in total). Groups of 3 male or female ICR mice weighing 22±2 g were employed. A serial 2-fold dosage variance was used in the test (8 doses in total). Variant doses (1, 2, 4, 8, 16, 32, 64 and 128 mg/kg) of test substances were administered intraperitoneally (IP). A vehicle of 2% Tween 80 in 0.9% NaCl was used for the intraperitoneal injection. The control group received vehicle alone. […] A reduction in the number of writhes by 50 percent or more (≧50%) relative to the vehicle-treated group indicated possible analgesic activity.

human κ-opiate receptor = biological target: T1, human κ-opiate receptor (Homo sapiens, UniProt P41145); test: In vitro opiate receptor radioligand binding assay, κ; details: test compound 10 μM; read-out: Percentage inhibition of radioligand binding, κ-opiate receptor
T1 construct: purchased MDS Pharma Services 260210
T1 sequence (P41145 whole entry): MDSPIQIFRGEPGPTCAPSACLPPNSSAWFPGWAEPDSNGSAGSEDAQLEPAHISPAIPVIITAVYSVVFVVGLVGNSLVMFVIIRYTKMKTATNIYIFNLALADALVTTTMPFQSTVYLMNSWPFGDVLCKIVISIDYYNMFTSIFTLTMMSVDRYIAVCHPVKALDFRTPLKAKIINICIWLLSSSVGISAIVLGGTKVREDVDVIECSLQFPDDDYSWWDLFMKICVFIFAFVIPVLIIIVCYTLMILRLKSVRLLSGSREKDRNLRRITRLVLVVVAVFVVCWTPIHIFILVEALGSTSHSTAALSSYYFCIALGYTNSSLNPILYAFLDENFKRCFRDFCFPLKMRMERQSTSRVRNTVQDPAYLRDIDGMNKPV
Experimental: (§2) To characterise the target specificity of the compounds, KRS-5-150 and KRS-6-26 were tested at a concentration of 10 μM for their ability to inhibit the binding of a radioligand to human δ-, κ-, or μ-opiate receptors in vitro using commercially available assays (MDS Pharma Services; assay catalogue numbers 260110, 260210 and 260410 respectively).
(§3) Percentage inhibition of radioligand binding to human opioid receptors in vitro by test compounds (10 μM)

human μ-opiate receptor = biological target: T2, human μ-opiate receptor (Homo sapiens, UniProt P35372); test: In vitro opiate receptor radioligand binding assay, μ; details: test compound 10 μM; read-out: Percentage inhibition of radioligand binding, μ-opiate receptor
T2 construct: purchased MDS Pharma Services 260410
T2 sequence (P35372 whole entry): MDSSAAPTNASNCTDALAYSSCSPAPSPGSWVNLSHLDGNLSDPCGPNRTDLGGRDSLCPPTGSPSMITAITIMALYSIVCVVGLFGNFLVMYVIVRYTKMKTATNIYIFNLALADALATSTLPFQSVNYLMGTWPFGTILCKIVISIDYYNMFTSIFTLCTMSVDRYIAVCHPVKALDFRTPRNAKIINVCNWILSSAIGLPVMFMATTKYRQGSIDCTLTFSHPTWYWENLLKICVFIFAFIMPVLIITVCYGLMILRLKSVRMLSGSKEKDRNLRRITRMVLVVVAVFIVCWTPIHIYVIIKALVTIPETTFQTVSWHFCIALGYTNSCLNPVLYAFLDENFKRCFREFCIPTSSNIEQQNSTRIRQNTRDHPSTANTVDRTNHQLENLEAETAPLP
Experimental: as §2, §3

human δ-opiate receptor = biological target: T3, human δ-opiate receptor (Homo sapiens, UniProt P41143); test: In vitro opiate receptor radioligand binding assay, δ; details: test compound 10 μM; read-out: Percentage inhibition of radioligand binding, δ-opiate receptor
T3 construct: purchased MDS Pharma Services 260110
T3 sequence (P41143 whole entry): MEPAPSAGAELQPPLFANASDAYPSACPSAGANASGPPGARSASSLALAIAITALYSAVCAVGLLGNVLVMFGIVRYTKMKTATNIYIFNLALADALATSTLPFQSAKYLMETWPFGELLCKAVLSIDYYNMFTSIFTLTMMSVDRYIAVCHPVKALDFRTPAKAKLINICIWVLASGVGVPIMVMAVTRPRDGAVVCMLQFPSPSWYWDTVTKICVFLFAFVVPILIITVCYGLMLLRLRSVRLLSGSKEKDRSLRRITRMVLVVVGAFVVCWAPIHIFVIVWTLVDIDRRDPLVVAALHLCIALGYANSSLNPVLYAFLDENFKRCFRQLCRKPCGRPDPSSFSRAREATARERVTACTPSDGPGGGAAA
Experimental: as §2, §3

ICR mice [3] = test: Radiant heat-induced tail-flick response assay in mice; type: in vivo; details: IP, 10 mg/kg
Experimental: For the tail-flick assay, groups of four male or female ICR mice weighing 22±2 g were used, and the test compound dissolved in 2% Tween 80/0.9% NaCl was administered intraperitoneally. The compound was administered intraperitoneally at 4, 8, 16 or 32 mg/kg, using 2% Tween 80—0.9% NaCl as the vehicle. Controls received vehicle alone. Morphine-HCl at a dose of 10 mg/kg was used as a positive control. At the pre-treatment point (0 minutes) a focused beam of radiant heat was applied to the middle dorsal surface of the tail to elicit a tail-flick response. […] The time required to elicit a pain response was recorded for each animal at 30 minutes following administration of the test compound. A prolongation of 50% or more ≧50% of the time required to elicit tail-flick response indicated possible analgesic activity.

ICR mice [4] = test: Phenylquinone-induced writhing model in mice (Example 16); type: in vivo; details: IP, 3 mg/kg, Table 1
Experimental: as §1, with “KRS-5-150 was evaluated for possible analgesic activity in the phenylquinone-induced writhing model in mice (Siegmund et al, 1957). A” for “In each case, a”

Oc1ccc2c3c1OC1C(O)C=CC4C(C2)N(/C(=N/c2ccccc2)Nc2ccccc2)CCC341 (stereo not drawn) [JFY-058, (5α,6α)-7,8-didehydro-4,5-epoxy-17-(N,N′-bisphenylcarboxamidino)morphinan, 3,6-diol]
Straub tail behaviour (ICR mice [1]; IP, 40 minute observation period after administration, Example 18): None of the test animals exhibited Straub tail behaviour
% Inhibition (ICR mice [2]; 1 mg/kg, Table 5): 17%
Number of Writhings Average (ICR mice [2]; 1 mg/kg, Table 5): 15
Number of Writhings Individual (ICR mice [2]; 1 mg/kg, Table 5): 17 and 19 and 10
% Inhibition (ICR mice [2]; 2 mg/kg, Table 5): 33%
Number of Writhings Average (ICR mice [2]; 2 mg/kg, Table 5): 12
Number of Writhings Individual (ICR mice [2]; 2 mg/kg, Table 5): 15 and 13 and 8
% Inhibition (ICR mice [2]; 4 mg/kg, Table 5): 39%
Number of Writhings Average (ICR mice [2]; 4 mg/kg, Table 5): 11
Number of Writhings Individual (ICR mice [2]; 4 mg/kg, Table 5): 15 and 6 and 11
% Inhibition (ICR mice [2]; 8 mg/kg, Table 5): 39%
Number of Writhings Average (ICR mice [2]; 8 mg/kg, Table 5): 11
Number of Writhings Individual (ICR mice [2]; 8 mg/kg, Table 5): 3 and 15 and 14
% Inhibition (ICR mice [2]; 16 mg/kg, Table 5): 78%
Number of Writhings Average (ICR mice [2]; 16 mg/kg, Table 5): 4
Number of Writhings Individual (ICR mice [2]; 16 mg/kg, Table 5): 2 and 1 and 8
% Inhibition (ICR mice [2]; 32 mg/kg, Table 5): 100%
Number of Writhings Average (ICR mice [2]; 32 mg/kg, Table 5): 0
Number of Writhings Individual (ICR mice [2]; 32 mg/kg, Table 5): 0 (2×) and 1
% Inhibition (ICR mice [2]; 64 mg/kg, Table 5): 100%
Number of Writhings Average (ICR mice [2]; 64 mg/kg, Table 5): 0
Number of Writhings Individual (ICR mice [2]; 64 mg/kg, Table 5): 0
% Inhibition (ICR mice [2]; 128 mg/kg, Table 5): 100%
Number of Writhings Average (ICR mice [2]; 128 mg/kg, Table 5): 0
Number of Writhings Individual (ICR mice [2]; 128 mg/kg, Table 5): 0
analgesic activity (≧50% reduction in writhes) (ICR mice [2]; doses of 128, 64, 32 and 16 mg/kg): significant activity

Cc1ccc(N=C(NCCCN2CC[C@]34c5c6ccc(O)c5O[C@H]3[C@@H](O)C=CC4[C@H]2C6)Nc2ccc(C)cc2)cc1 (stereo partly drawn) [KRS-6-26, (5α,6α)-7,8-didehydro-4,5-epoxy-17-(N,N′-bis-p-tolylcarboxamidino-3-aminopropyl)morphinan-3,6-diol]
inhibition at 10 µM (human κ-opiate receptor): 94%
inhibition at 10 µM (human μ-opiate receptor): 99%
test animals exhibiting slight Straub tail behaviour (ICR mice [1]; IP, 16 mg/kg, Example 18): one
test animals exhibiting slight Straub tail behaviour and piloerection (ICR mice [1]; IP, 128, 64 and 32 mg/kg, Example 18): 2 of 3
inhibition at 10 µM (human δ-opiate receptor): 95%
% Inhibition (ICR mice [2]; 1 mg/kg, Table 4): 50%
Number of Writhings Average (ICR mice [2]; 1 mg/kg, Table 4): 6
Number of Writhings Individual (ICR mice [2]; 1 mg/kg, Table 4): 0 and 13 and 4
% Inhibition (ICR mice [2]; 2 mg/kg, Table 4): 50%
Number of Writhings Average (ICR mice [2]; 2 mg/kg, Table 4): 6
Number of Writhings Individual (ICR mice [2]; 2 mg/kg, Table 4): 13 and 2 and 4
% Inhibition (ICR mice [2]; 4 mg/kg, Table 4): 75%
Number of Writhings Average (ICR mice [2]; 4 mg/kg, Table 4): 3
Number of Writhings Individual (ICR mice [2]; 4 mg/kg, Table 4): 0 and 7 and 2
% Inhibition (ICR mice [2]; 8 mg/kg, Table 4): 92%
Number of Writhings Average (ICR mice [2]; 8 mg/kg, Table 4): 1
Number of Writhings Individual (ICR mice [2]; 8 mg/kg, Table 4): 1 and 0 and 2
% Inhibition (ICR mice [2]; 16 mg/kg, Table 4): 100%
Number of Writhings Average (ICR mice [2]; 16 mg/kg, Table 4): 0
Number of Writhings Individual (ICR mice [2]; 16 mg/kg, Table 4): 0
% Inhibition (ICR mice [2]; 32 mg/kg, Table 4): 100%
Number of Writhings Average (ICR mice [2]; 32 mg/kg, Table 4): 0
Number of Writhings Individual (ICR mice [2]; 32 mg/kg, Table 4): 0 (2×) and 1
% Inhibition (ICR mice [2]; 64 mg/kg, Table 4): 100%
Number of Writhings Average (ICR mice [2]; 64 mg/kg, Table 4): 0
Number of Writhings Individual (ICR mice [2]; 64 mg/kg, Table 4): 0
% Inhibition (ICR mice [2]; 128 mg/kg, Table 4): 100%
Number of Writhings Average (ICR mice [2]; 128 mg/kg, Table 4): 0
Number of Writhings Individual (ICR mice [2]; 128 mg/kg, Table 4): 0
inhibition in writhing (ICR mice [2]; doses higher than 8 mg/kg): 100%
deaths (ICR mice [2]; up to 128 mg/kg): no deaths

CN1CC[C@]23c4c5ccc(O)c4O[C@H]2[C@@H](O)C=C[C@H]3[C@H]1C5 [Morphine.HCl, reference compound]
test animals exhibiting the Straub tail phenomenon (ICR mice [1]; 3 mg/kg, Example 16): 1 of 3
test animals with slight Straub tail phenomenon (ICR mice [1]; 3 mg/kg, Example 18): 2 of 3
% Inhibition (prolongation of tail-flick response time) (ICR mice [3]; 30 minutes): (100) %
Response Time (Seconds) 30 Mins., Average (ICR mice [3]; 30 minutes after administration): 13.6 s
Response Time (Seconds) 30 Mins. (ICR mice [3]; individual mice, 30 minutes after administration, cut-off 15 seconds): >15.0 Seconds (3×) and 9.4 Seconds
Response Time (Seconds) 0 Time (ICR mice [3]; individual mice, pre-treatment (0 minutes)): 6.3 Seconds (2×) and 6.2 Seconds and 6.5 Seconds
Response Time (Seconds) 0 Time, Average (ICR mice [3]; pre-treatment (0 minutes)): 6.3 s
% Inhibition (ICR mice [4]): 100%
No. of Writhings Individual (ICR mice [4]; individual mice): 0
% Inhibition (ICR mice [2]; 3 mg/kg, Table 4): 100%
Number of Writhings Average (ICR mice [2]; 3 mg/kg, Table 4): 0
% Inhibition (ICR mice [2]; 3 mg/kg, Table 5): 100%
Number of Writhings Average (ICR mice [2]; 3 mg/kg, Table 5): 0
Number of Writhings Individual (ICR mice [2]; 3 mg/kg, Table 4): 1 and 0 (2×)
Number of Writhings Individual (ICR mice [2]; 3 mg/kg, Table 5): 0

(5α,6α)-7,8-didehydro-4,5-epoxy-17-(N,N′-bis-p-tolylcarboxamidino-3-aminopropyl)morphinan-3,6-diol [KRS-6-26]
analgesic activity (≧50% reduction in writhes) (ICR mice [2]; doses of 128, 64, 32, 16, 8, 4, 2 and 1 mg/kg): significant activity
